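Five compound concentrations were applied to cells in 96-well plates for 48 hours; endpoints were derived by simple linear interpolation of the resulting dose-response curve. Here, GI50 denotes the concentration required for 50% inhibition of growth.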 Activity calls are given as the source filed them. Rule as the data show it: active = GI50 up to about 1.1 µM and inactive = higher.
What was measured:
Assay in all cases: growth of human tumour cells (NCI), 48 h
[1] = tested on: SNB-75
[2] = tested on: K562
[3] = tested on: ACHN
[4] = tested on: SN12C
[5] = tested on: 786-0
[6] = tested on: KM12
[7] = tested on: OVCAR-3
[8] = tested on: PC-3
[9] = tested on: Hs-578T
[10] = tested on: COLO 205
[11] = tested on: NCI-H226
[12] = tested on: TK-10
[13] = tested on: EKVX
[14] = tested on: SK-MEL-2
[15] = tested on: HL-60
[16] = tested on: M14
[17] = tested on: HT-29
[18] = tested on: T47D
[19] = tested on: SK-MEL-5
[20] = tested on: UACC-257

SMILES	GI50 [1]	GI50 [2]	GI50 [3]	GI50 [4]	GI50 [5]	GI50 [6]	GI50 [7]	GI50 [8]	GI50 [9]	GI50 [10]	GI50 [11]	GI50 [12]	GI50 [13]	GI50 [14]	GI50 [15]	GI50 [16]	GI50 [17]	GI50 [18]	GI50 [19]	GI50 [20]
CC(=O)C1=C(C)O[C@@H]2O[C@H](COCc3ccccc3)[C@@H](OCc3ccccc3)[C@H](O)[C@@H]2S1	23.3 µM (inactive)	19.7 µM (inactive)	23.3 µM (inactive)	19.2 µM (inactive)	25.1 µM (inactive)	19.6 µM (inactive)	15.2 µM (inactive)	26.2 µM (inactive)	17.9 µM (inactive)	22.2 µM (inactive)	18.8 µM (inactive)	19.1 µM (inactive)	25.1 µM (inactive)	20.4 µM (inactive)	16.4 µM (inactive)	20.4 µM (inactive)	19.6 µM (inactive)	5.9 µM (inactive)	16.5 µM (inactive)	18.3 µM (inactive)
COC(=O)[C@@H]1c2c(oc3cc(CO)cc(O)c3c2=O)C=C[C@H]1O	17.9 µM (inactive)	3.28 µM (inactive)	–	9.86 µM (inactive)	2.45 µM (inactive)	3.71 µM (inactive)	8.02 µM (inactive)	7.18 µM (inactive)	24.7 µM (inactive)	5.5 µM (inactive)	25.8 µM (inactive)	2.34 µM (inactive)	13.3 µM (inactive)	15.2 µM (inactive)	2.25 µM (inactive)	5.97 µM (inactive)	3.39 µM (inactive)	2.7 µM (inactive)	5.73 µM (inactive)	8.85 µM (inactive)
CCCC(=O)NC(C(=O)OCC)(N1CCOCC1)C(F)(F)F (centres undefined)	> 100 µM (inactive)	> 100 µM (inactive)	> 100 µM (inactive)	> 100 µM (inactive)	> 100 µM (inactive)	> 100 µM (inactive)	> 100 µM (inactive)	> 100 µM (inactive)	> 100 µM (inactive)	> 100 µM (inactive)	> 100 µM (inactive)	> 100 µM (inactive)	> 100 µM (inactive)	> 100 µM (inactive)	> 100 µM (inactive)	> 100 µM (inactive)	> 100 µM (inactive)	> 100 µM (inactive)	> 100 µM (inactive)	> 100 µM (inactive)
CC(O)CCC(=O)c1ccoc1 (centres undefined)	3500 µM (inactive)	6180 µM (inactive)	5640 µM (inactive)	7180 µM (inactive)	> 10000 µM (inactive)	7710 µM (inactive)	3610 µM (inactive)	6120 µM (inactive)	5120 µM (inactive)	5580 µM (inactive)	5610 µM (inactive)	6980 µM (inactive)	6080 µM (inactive)	7710 µM (inactive)	3350 µM (inactive)	> 9420 µM (inactive)	8450 µM (inactive)	5010 µM (inactive)	4560 µM (inactive)	5130 µM (inactive)
C=C(C=O)c1c2c(nc3ccccc13)C(=O)c1ccccc1C2=O	1.14 µM (inactive)	0.391 µM (active)	0.434 µM (active)	0.504 µM (active)	0.826 µM (active)	1.22 µM (inactive)	0.398 µM (active)	1.29 µM (inactive)	0.617 µM (active)	1.1 µM (active)	0.966 µM (active)	1.02 µM (active)	1.19 µM (inactive)	1.37 µM (inactive)	0.31 µM (active)	0.562 µM (active)	0.47 µM (active)	0.646 µM (active)	0.162 µM (active)	1.49 µM (inactive)
CCC(=O)Nc1ccc(/N=N/N(C)C)cc1	> 100 µM (inactive)	50.2 µM (inactive)	> 100 µM (inactive)	> 100 µM (inactive)	> 100 µM (inactive)	–	–	> 100 µM (inactive)	> 100 µM (inactive)	63.4 µM (inactive)	> 100 µM (inactive)	–	> 100 µM (inactive)	> 100 µM (inactive)	42.8 µM (inactive)	> 100 µM (inactive)	> 100 µM (inactive)	6.64 µM (inactive)	53.7 µM (inactive)	> 100 µM (inactive)
COc1ccc(-c2cc(-c3ccccc3)n(C3OC(COC(C)=O)C(OC(C)=O)C(OC(C)=O)C3OC(C)=O)c(=S)c2C#N)cc1 (centres undefined)	6.38 µM (inactive)	3.61 µM (inactive)	15.2 µM (inactive)	9.79 µM (inactive)	3.44 µM (inactive)	16.9 µM (inactive)	11.4 µM (inactive)	12.4 µM (inactive)	5.71 µM (inactive)	11.3 µM (inactive)	5.87 µM (inactive)	25.9 µM (inactive)	14.9 µM (inactive)	–	2.61 µM (inactive)	8 µM (inactive)	6.28 µM (inactive)	4.69 µM (inactive)	6.71 µM (inactive)	–

Reference: ChEMBL document CHEMBL1201862, “PubChem BioAssay data set” (2004)
